The source of these data is US20060183696A1, “Use of immune cell specific conjugates for treatment of inflammatory diseases of gastrointestinal tract” (Pliva-Istrazivacki Institut d.o.o., priority 2004, published 2006).

Series [1] can be described thus: Oral bioavailability in rats (p.o. vs i.v., HPLC/MS-MS). As to conditions: rat, in vivo.
Procedure: (§1) Male Sprague-Dawley rats weighing approximately 200 g were used. After weighing, each rat was given an earmark and placed into a cage. The day before the beginning of the study, animals were randomly distributed into 5 groups with 5 rats/group and placed into solid bottom cages, on wood dust-free bedding (VRF-1 Rodent's diet, Altromin Gmbh). During the experiment, the rats were maintained on a 12-h light-dark cycle. The rats were weighed and fasted for 12 hours prior to p.o. administration.
(§2) Compound 5 was administered p.o. in 0.125% carboxymethyl cellulose suspension. The dissolved substance was administered oral at a dose of 30 mg/kg body weight (b.w.), using 2.5 mL syringe (BD) and metal gavage. The administered volume was 10 mL/kg b.w.
(§3) Plasma and blood samples were obtained at the following time points after administration: 15, 30, 60, 120, 240, 360 and 480 minutes.
(§4) Blood samples were collected by puncturing the lateral tail vein. Prior to each blood sampling, animals were maintained in warming cabinets at 37° C. for 15 minutes. At each sampling time-point 50 μL of blood were collected and added to an Eppendorf test tube (1.5 mL) containing 50 μL demi water. Blood was collected according the time points stated in the protocol. Specimens were stored at −20° C. until analysis.
(§5) The concentrations of a compound 5 in the biological matrices were determined by a high performance liquid chromatography method using an acetonitrile and water (acidified by 0.1% formic acid) gradient as the chromatographic medium with tandem mass spectrometry detection (HPLC/MS-MS) (Guidance for Industry, Bioanalytical Method Validation, U.S. Department of Health and Human Services, Food and Drug Administration, May 2001).
(§6) Biological samples were prepared by deproteinization with acetonitrile, containing an internal standard. After centrifugation and evaporation of the supernatant fraction, samples were reconstituted in acetonitrile:water with addition of 0.1% formic acid.
(§7) HPLC separation was performed on a reverse phase C18 analytical column (Phenomenex C18(2)m 50×2 mm (3 μm) No 182700-5) with a guard column, maintained at ambient temperature, using a gradient of water:acetonitrile [0 min-1 min 10% acetonitrile, 2.5-3.5 minutes 80% acetonitrile, 3.5-5.6 min 10% acetonitrile with addition of 0.1% formic acid at flow rate 0.3 ml/min
(§8) MS-MS detection was performed in multi-resolution mode (MRM).
(§9) The concentration of the administered compound in biological matrices are calculated by the peak area ratios of compound 5 to an internal standard of roxithromycin using calibration curves and quality control samples.
(§10) The pharmacokinetic parameters were calculated using the PK solutions 2.0 software (Summit Research Services, Pharmacokinetics and Metabolism Software).
(§11) The pharmacokinetic parameters were calculated as disclosed herein to obtain the bioavailability wherein F=(AUC p.o.(0−∞)/AUC i.v. (0−∞))/(Di.v./Dp.o.).
In series [2] the test system is TNBS induced colitis. Put plainly: TNBS-induced inflammatory bowel disease (colitis) in rats. The series is classed as in vivo, rat. How it is done:
Colitis is induced in male Wistar rats by intracolonic administration of 10-50 mg of TNBS in 0.25 ml of 50% ethanol. Two days prior to administration of TNBS animals are treated with various doses of sterolide (initially ranging from 0.5 to 10 mg/kg of the compound in 0.125% carboxymethyl cellulose in phosphate buffered saline and 1% DMSO) or vehicle control (0.125% carboxymethyl cellulose in phosphate buffered saline and 1% DMSO) or standard steroid such as for example budesonide (1 mg/kg) for 14 days after the TNBS is applied. Rats were sacrificed, blood samples werewere taken (at day 7 and 15 after application of TNBS) to obtain serum samples followed by macroscopic observation and histological evaluation to determine the degree of colonic inflammation. Macroscopic and histological evaluation of tissue damage was done blindly by pathologist. The criteria for assessing macroscopic damage and the numerical rating score are as follows: 0, no damage; 1, localized hyperemia and/or edema; 2, linear ulcer<half of the width of the colon; 3, linear ulcer>half of the width of the colon; 4, small circular ulcer (<1 cm); 5, circular ulcer between 1 and 2 cm; 6, circular ulcer>2 cm. Scores from individual animals were added together and divided by number of animals to get average […] damage. For histological evaluation of colonic injury, each colon is blindly scored according to the following criteria: A) Ulceration: 0, no ulcer, epithelization; 1, small ulcer<3 mm; 2, large ulcer>3 mm; B) Inflammation: 0, no inflammation; 1, mild; 2, moderate; 3, severe; C) Depth of lesion: 0, none; 1, submucosa; 2, muscularis propria; 3, serosa; D) Necrosis: 0, none; 1, mild; 2, severe; E) Granulomas: No, no granulomas; Yes, granulomas present. Maximum score, defined as a sum of all individual scores in this scoring system is 10+granulomas. In some experiments Lekotriene B4 (LTB4) and serum α1 acidic glycoprotein were also measured as an additional indicator of inflammatory activity. Likewise, in selected experiments full thickness specimens from inflamed tissue adjacent to the ulcerated area are excised for measurement of myeloperoxidase (MPO) activity.
Improvement in this experiment is defined by the lower average macroscopic damage and lower histological score, as well as lowering of LTBB4, serum α1 acidic glycoprotein and MPO activity in sterolide treated then in the group of […] (animals receiving vehicle alone).
FIG. 1A describes the macroscopic damage score of the colon in the rat model of TNBS induced colitis (Mann-Whitney Test). The macroscopic damage score of the colon is defined as 0—no damage; 1—localized hyperemia and/or edema; 2—linear ulcer<half of the width of the colon; 3—linear>half the width of the colon or small ulcer (<1 cm) 4—circular ulcer<1 cm; 5—circular between 1 and 2 cm; and 6—circular ulcer>2 cm. The compounds 1′, 2′ and 3′ as shown in the table below were compared against budesonide [a known drug useful for the treatment of Crohn's disease in humans] as a treatment control and just a vehicle as a no treatment control. The no treatment control gave a score of 4 while the treatment control, budesonide, at a dosage of 1 mg/kg gave a score of 2.
FIG. 1B describes effect of conjugates on histological damage score in TNBS induced colitis in rats (Mann-Whitney Test). The histological damage score is defined according to the following criteria: A) Ulceration: 0, no ulcer, epithelization; 1, small ulcer<3 mm; 2, large ulcer>3 mm; B) Inflammation: 0, no inflammation; 1, mild; 2, moderate; 3, severe; C) Depth of lesion: 0, none; 1, submucosa; 2, muscularis propria; 3, serosa; D) Necrosis: 0, none; 1, mild; 2, severe; E) Granulomas: No, no granulomas; Yes, granulomas present. Maximum score, defined as a sum of all individual scores in this scoring system is 10+granulomas. […]

A short description of series [3]: AUC of compounds tested in mice or rats. More on the design: concentration or dose not given beside the values. Conditions: in vivo, po. The method, then:
The area under the curve (AUC) is calculated as: [formula] where n is the number of data points
AUC∞=AUC(0−t)+Cn/λz, where Cn is the last concentration and λz is the elimination rate constant (estimated from the later portion of the plasma/blood concentration vs. time profiles).

The nature of series [4]: in vivo. Conditions: male, BALB/CJ, mouse.
Procedure: (§12) For I.N. and P.O. administration the substance was dissolved in DMSO. 0.5% methyl cellulose was added up to 100% of the total volume. The solution was applied in a volume of 10 ml/kg b.w. (P.O.) and 10 ml/kg b.w. (I.N.). For I.V. administration the substance was dissolved in DMF. PBS was added up to 100% of the total volume. The solution was applied in a volume of 5 ml/kg b.w. (I.V.)
(§13) The experiment was carried out on approximately eight week old male BALB/CJ mice (IFFA CREDO, Lyon, France), weighing ˜25 g. Animals were weighed, marked and grouped a day before the beginning of the study. After weighing each mouse was given an earmark and placed into a cage (5 mice per cage). […]
(§14) The concentration of the administered compound in biological matrices are calculated by the peak area ratios of compound 1 to an internal standard of roxithromycin using calibration curves and quality control samples.
(§15) Non-compartmental analysis was used for pharmacokinetic analysis in plasma and tissue. The pharmacokinetic parameters were calculated based on average values at each time point using WinNonlin Professional Software, Version 4.1 (Pharsight).
(§16) The pharmacokinetic parameters were calculated as disclosed herein to obtain the bioavailability wherein F=(AUC p.o.(0−∞)/AUC i.v.(0−∞))/(Di.v./Dp.o.).
For series [5] the following is noted: mouse, in vivo.
Procedure: as §12, §13, §14, §15, §16
For series [6] the following is noted: rat, in vivo; for Amounts detected in plasma and blood: po.
Procedure: as §1, §2, §3, §4, §5, §6, §7, §8, §9, §10, §11

Where two headings read alike, the source gives them in different places.

Broadly, the bioavailability is the share of a dose that reaches the circulation, judged against a reference dose that is usually intravenous. As usually defined, the AUC is the area under the concentration-time curve, a measure of exposure. In series [1] (male), `CC[C@H]1OC(=O)[C@H](C)[C@@H](O[C@H]2C[C@@](C)(OC)[C@@H](O)[C@H](C)O2)[C@H](C)[C@@H](O[C@@H]2O[C@H](C)C[C@H](N(C)C)[C@H]2O)[C@](C)(O)C[C@@H](C)CN(CCCNC(=O)Cc2c(C)n(C(=O)c3ccc(Cl)cc3)c3ccc(OC)cc23)[C@H](C)[C@@H](O)[C@]1(C)O` [3′] showed a bioavailability of 3.7%. In series [1], this compound came in with an AUC of 2580 ng·h/mL and a bioavailability of less than 10%. In addition, in series [2] (FIG. 1A, 10 mg/kg), the “efficacy on macroscopic damage score compared with budesonide (1 mg/kg)” value was “comparable or superior efficacy to that of the standard steroid budesonide”. In addition, in series [2] (FIG. 1B, 10 mg/kg), the “efficacy on histological damage score compared with budesonide (1 mg/kg)” value is “comparable or superior efficacy to that of the standard steroid budesonide”.

For the compound `CC[C@H]1OC(=O)[C@H](C)[C@@H](O)[C@H](C)[C@@H](O)[C@](C)(O)C[C@@H](C)CN(CCCN(CC)CCC(=O)O[C@]2(C(=O)OC)[C@H](C)CC3C4C[C@H](F)C5=CC(=O)C=C[C@]5(C)[C@@]4(F)[C@@H](O)C[C@@]32C)[C@H](C)[C@@H](O)[C@]1(C)O` (stereo partly drawn) [Compound 8], in series [3], the AUC was found to be 60 ng·h/mL.

With `CC[C@H]1OC(=O)[C@H](C)[C@@H](O[C@H]2C[C@@](C)(OC)[C@@H](O)[C@H](C)O2)[C@H](C)C(O[C@@H]2O[C@H](C)C[C@H](N(C)C)[C@H]2O)[C@](C)(O)C[C@@H](C)/C(=N\OCCCCCCNC(=O)CNS(=O)(=O)c2ccc(-n3nc(C(F)(F)F)cc3-c3ccc(C)cc3)cc2)[C@H](C)[C@@H](O)[C@]1(C)O` (stereo partly drawn) [11′], in series [1] (male), the bioavailability is less than 1%.

Take `CC[C@H]1OC(=O)[C@H](C)[C@@H](O[C@H]2C[C@@](C)(OC)[C@@H](O)[C@H](C)O2)[C@H](C)[C@@H](O[C@@H]2O[C@H](C)C[C@H](N(C)C)[C@H]2O)[C@](C)(O)C[C@@H](C)CN(CCCNC(=O)[C@@]2(O)[C@H](C)CC3C4CCC5=CC(=O)C=C[C@]5(C)[C@@]4(F)[C@@H](O)C[C@@]32C)[C@H](C)[C@@H](O)[C@]1(C)O` (stereo partly drawn) [2′]: the “efficacy on macroscopic damage score compared with budesonide (1 mg/kg)” value in series [2] (FIG. 1A, 2 mg/kg) is “comparable or superior efficacy to that of the standard steroid budesonide”. The “efficacy on histological damage score compared with budesonide (1 mg/kg)” value in series [2] (FIG. 1B, 2 mg/kg) is on record as “comparable or superior efficacy to that of the standard steroid budesonide”. In addition, in series [4], the bioavailability is less than 1%.

Take `CCCN(CCCN1C[C@H](C)C[C@@](C)(O)[C@H](O)[C@@H](C)[C@H](O)[C@@H](C)C(=O)O[C@H](CC)[C@@](C)(O)[C@H](O)[C@H]1C)CCC(=O)O[C@]1(C(=O)OC)[C@H](C)CC2C3C[C@H](F)C4=CC(=O)C=C[C@]4(C)[C@@]3(F)[C@@H](O)C[C@@]21C` (stereo partly drawn) [Compound 10]: in series [3], the AUC worked out at 60 ng·h/mL.

As to `CC[C@H]1OC(=O)[C@H](C)[C@@H](O)[C@H](C)[C@@H](O)[C@](C)(O)C[C@@H](C)CN(CCCNC(=O)[C@H]2[C@H](C)CC3C4CCC5=CC(=O)C=C[C@]5(C)[C@@]4(F)[C@@H](O)C[C@@]32C)[C@H](C)[C@@H](O)[C@]1(C)O` (stereo partly drawn) [Compound 1′], the “efficacy on macroscopic damage score compared with budesonide (1 mg/kg)” value in series [2] (FIG. 1A, 2 mg/kg) is “comparable or superior efficacy to that of the standard steroid budesonide”; in series [2] (FIG. 2, dosages ranging from 4 mg/kg to 0.5 mg/kg), “comparable or superior efficacy to that of the standard steroid budesonide”. Besides, in series [2] (FIG. 1B, 2 mg/kg), the “efficacy on histological damage score compared with budesonide (1 mg/kg)” value was “comparable or superior efficacy to that of the standard steroid budesonide”.

In series [3], `CCCCN(CCCN1C[C@H](C)C[C@@](C)(O)[C@H](O)[C@@H](C)[C@H](O)[C@@H](C)C(=O)O[C@H](CC)[C@@](C)(O)[C@H](O)[C@H]1C)CCC(=O)O[C@]1(C(=O)OC)[C@H](C)CC2C3C[C@H](F)C4=CC(=O)C=C[C@]4(C)[C@@]3(F)[C@@H](O)C[C@@]21C` (stereo partly drawn) [Compound 9] yielded an AUC of 390 ng·h/mL.

Turning to `CC[C@H]1OC(=O)[C@H](C)[C@@H](O)[C@H](C)[C@@H](O)[C@](C)(O)C[C@@H](C)CN(CCCNCCC(=O)O[C@]2(C(=O)OC)[C@H](C)CC3C4C[C@H](F)C5=CC(=O)C=C[C@]5(C)[C@@]4(F)[C@@H](O)C[C@@]32C)[C@H](C)[C@@H](O)[C@]1(C)O` (stereo partly drawn) [Compound 1], in series [5], the oral bioavailability result is listed as “not measurable”. In series [3], this compound displayed an AUC of 70 ng·h/mL.

On to `CC[C@H]1OC(=O)[C@H](C)[C@@H](O)[C@H](C)[C@@H](O[C@@H]2O[C@H](C)C[C@H](N(C)C)[C@H]2O)[C@](C)(O)C[C@@H](C)CN(CCCNC(=O)Cc2c(C)n(C(=O)c3ccc(Cl)cc3)c3ccc(OC)cc23)[C@H](C)[C@@H](O)[C@]1(C)O` [9′], for which the bioavailability in series [1] (male) is 2.5%; in series [1], less than 10%. In series [1], the AUC is 1130 ng·h/mL.

Regarding `CC[C@H]1OC(=O)[C@H](C)[C@@H](O[C@H]2C[C@@](C)(OC)[C@@H](O)[C@H](C)O2)[C@H](C)[C@@H](O[C@@H]2O[C@H](C)C[C@H](N(C)C)[C@H]2O)[C@](C)(O)C[C@@H](C)CN(CCCNC(=O)c2cccnc2Nc2cccc(C(F)(F)F)c2C)[C@H](C)[C@@H](O)[C@]1(C)O` [4′], the bioavailability in series [1] (male) stood at 6.9%. Also, in series [1], the AUC is 2180 ng·h/mL and the bioavailability was less than 10%.

On to `CC[C@H]1OC(=O)[C@H](C)C(OC2C[C@@](C)(OC)[C@@H](O)[C@H](C)O2)[C@H](C)[C@@H](O[C@@H]2O[C@H](C)C[C@H](N(C)CCCNC(=O)[C@]3(O)[C@H](C)CC4C5CCC6=CC(=O)C=C[C@]6(C)[C@@]5(F)[C@@H](O)C[C@@]43C)[C@H]2O)[C@](C)(O)C[C@H](C)CN(C)[C@H](C)[C@@H](O)[C@]1(C)O` (stereo partly drawn) [Compound 6], for which the AUC in series [3] is 400 ng·h/mL.

As for `CC[C@H]1OC(=O)[C@H](C)[C@@H](O)[C@H](C)[C@@H](O)[C@](C)(O)C[C@@H](C)CN(CCCNC(=O)[C@H]2[C@H](C)CC3C4CCC5=CC(=O)C=C[C@]5(C)[C@@]4(F)[C@@H](O)C[C@@]32C)[C@H](C)[C@@H](O)[C@]1(C)O` (stereo partly drawn) [drawing 72], in series [6], the oral bioavailability result is “not measurable”; the “Amounts detected in plasma and blood” value is given as “below the limits of detection”.

`CC[C@H]1OC(=O)C(C)[C@@H](O[C@H]2C[C@@](C)(OC)[C@@H](O)[C@H](C)O2)[C@H](C)[C@@H](O[C@@H]2O[C@H](C)C[C@H](N(C)C)[C@H]2O)[C@](C)(O)C[C@@H](C)/C(=N\OCCCCCNC(=O)[C@@]2(O)[C@H](C)CC3C4CCC5=CC(=O)C=C[C@]5(C)[C@@]4(F)[C@@H](O)C[C@]32C)[C@H](C)[C@@H](O)[C@]1(C)O` (stereo partly drawn) [Compound 5]: in series [6] (30 mg/kg), the oral bioavailability result was “not measurable”; the “Amounts detected in plasma and blood” value is “below the limits of detection”.

For `CCCC1O[C@@H]2C[C@H]3[C@@H]4CCC5=CC(=O)C=C[C@]5(C)[C@H]4[C@@H](O)C[C@]3(C)[C@]2(C(=O)CO)O1` (stereo partly drawn) [Budesonide, budesonide, reference compound], the “macroscopic damage score of the colon” value in series [2] (FIG. 1A, 1 mg/kg, score 0-6, no treatment control 4) turned out to be 2. The histological damage score in series [2] (FIG. 1B, 1 mg/kg, maximum score 10, no treatment control 7,6) is on record as 4,5.
